Laboratory results: patent US11912699B2, “Tau-protein targeting compounds and associated” (Arvinas Operations, Inc., priority 2019, dated 2024)

Biological target: T1, Tau P301L (Homo sapiens, UniProt P10636, P618L)
T1 construct: expressed in transfected cells
Experiment: In vitro tau degradation assay in CHOK1 Tau P301L cells (sarkosyl insoluble tau, WES)
Assay type: cell-based
Settings: remaining tau protein in sarkosyl insoluble pellet, CHOK1 Tau P301L cells treated 48 hours with test compound at 1 μM, doxycycline removed for the last 24 hours, relative to DMSO doxycycline control; for remaining activity at 1 µM: CHO-K1, read-out: Tau Protein Degradation effect at 1 μM
Protocol: Exemplary bifunctional molecules of the present disclosure are represented by the structures in Table 1, which includes associated data. In vitro tau protein degradation data in CHOK1 Tau P301L cells, as described below, is reported based on the remaining tau protein in the sarkosyl insoluble pellet following treatment of cells for 48 hours with test compound at the 1 μM concentration where the last 24 hours doxycycline was removed. The data are represented relative to DMSO doxycycline control: • A ≤50% of tau protein remaining (>50% of tau protein degraded) • B >50% of tau protein remaining ([…] of tau protein degraded)
Data for compounds in Table 1 was generated using in vitro tau Degradation Assay protocol as described in Methods for FIGS. 2A and 2B below.
FIGS. 2A and 2B. (2A) Tau expression was induced by addition (+) of doxycycline (1 μg/ml) to ChoK1-Tau P301L clone D1.
In vitro tau Degradation Assay for FIGS. 2A and 2B. T-Rex CHOK1 cells are maintained in Ham's F-12 Nutrient Mix (ThermoFisher) plus 10% Fetal Bovine Serum Tetracycline Negative (Corning) with 10 ug/mL Blasticidin S HCl (Gibco) and 200 ug/mL Zeocin (100 mg/mL, Invitrogen). A stable clone expressing Tau P301L in the presence of doxycycline (1 μg/ml), clone D1 was selected. Compounds were diluted to indicated concentrations and used to treat cells for the indicated times. Cells were harvested from either 96, 24, 6, or 10 cm dishes coated with Poly-D-Lysine (Corning) in ice cold PBS or Buffer H+HALT Protease and phosphatase inhibitors (Thermofisher). Sarkosyl Insoluble tau was isolated as described in Eckermann et al. and Greenberg and Davies, accordingly. WES™ capillary electrophoresis analysis was performed on the Sarkosyl Insoluble tau fraction using Tau1 antibody (Milipore) unless otherwise indicated, as specified in the manufacturers specification (ProteinSimple).

T1 sequence (P10636 1-441 isoform P10636-8 P301L): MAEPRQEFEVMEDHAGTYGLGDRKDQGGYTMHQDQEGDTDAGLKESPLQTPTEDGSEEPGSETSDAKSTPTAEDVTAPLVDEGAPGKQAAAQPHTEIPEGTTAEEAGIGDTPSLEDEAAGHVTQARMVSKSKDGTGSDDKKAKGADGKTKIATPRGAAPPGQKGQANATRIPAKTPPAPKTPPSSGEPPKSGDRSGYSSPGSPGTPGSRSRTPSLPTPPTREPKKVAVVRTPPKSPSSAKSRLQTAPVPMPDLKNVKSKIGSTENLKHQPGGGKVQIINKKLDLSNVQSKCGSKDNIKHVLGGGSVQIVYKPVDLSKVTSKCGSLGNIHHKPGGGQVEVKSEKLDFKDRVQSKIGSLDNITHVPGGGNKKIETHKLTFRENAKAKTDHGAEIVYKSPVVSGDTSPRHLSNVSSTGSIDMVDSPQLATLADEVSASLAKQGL

Row | Structure (SMILES) | remaining activity at 1 µM | Tau Protein Degradation effect at 1 μM
1 | Cc1ncsc1-c1ccc([C@H](C)NC(=O)[C@@H]2C[C@@H](O)CN2C(=O)[C@H](c2cc(OCCCCCN3CCC(O[C@H]4C[C@H](Oc5ccc(-c6ccc7c8cnccc8n(C)c7c6)cn5)C4)CC3)no2)C(C)C)cc1 [Compound 378, (2S,4R)-4-hydroxy-1-((S)-3-methyl-2-(3-((5-(4-((1r,3r)-3-((5-(5-methyl-5H-pyrido[4,3-b]indol-7-yl)pyridin-2-yl)oxy)cyclobutoxy)piperidin-1-yl)pentyl)oxy)isoxazol-5-yl)butanoyl)-N-((S)-1-(4-(4-methylthiazol-5-yl)phenyl)ethyl) pyrrolidine-2-carboxamide] | > 50% | –
2 | Cc1ncsc1-c1ccc([C@H](C)NC(=O)[C@@H]2C[C@@H](O)CN2C(=O)[C@@H](c2cc(OCCCCCN3CCC(O[C@H]4C[C@H](Oc5ccc(-c6ccc7c8cnccc8n(C)c7c6)cn5)C4)CC3)no2)C(C)C)cc1 [Compound 379, (2S,4R)-4-hydroxy-1-((R)-3-methyl-2-(3-((5-(4-((1r,3r)-3-((5-(5-methyl-5H-pyrido[4,3-b]indol-7-yl)pyridin-2-yl)oxy)cyclobutoxy)piperidin-1-yl)pentyl)oxy)isoxazol-5-yl)butanoyl)-N-((S)-1-(4-(4-methylthiazol-5-yl)phenyl)ethyl) pyrrolidine-2-carboxamide] | > 50% | –
3 | O=C1CCC(N2C(=O)c3ccc(OCCOCCOCCOCCOc4ccc5cc(-n6ccc7ccncc76)ncc5c4)cc3C2=O)C(=O)N1 (stereo not shown) [Compound 384, 5-(2-(2-(2-(2-((3-(1H-pyrrolo[2,3-c]pyridin-1-yl)isoquinolin-7-yl)oxy)ethoxy)ethoxy)ethoxy)ethoxy)-2-(2,6-dioxopiperidin-3-yl)isoindoline-1,3-dione] | > 50% | –
4 | Cn1c2ccncc2c2ccc(-c3ccc(O[C@H]4C[C@H](OC5CCN(CCCOc6ccc7c(c6)C(=O)N(C6CCC(=O)NC6=O)C7=O)CC5)C4)nc3)cc21 (stereo partly shown) [Compound 385, 2-(2,6-dioxopiperidin-3-yl)-5-(3-(4-((1r,3r)-3-((5-(5-methyl-5H-pyrido[4,3-b]indol-7-yl)pyridin-2-yl)oxy)cyclobutoxy)piperidin-1-yl)propoxy)isoindoline-1,3-dione] | > 50% | –
5 | Cn1c2ccncc2c2ccc(-c3ccc(O[C@H]4C[C@H](CN5CC6(CN(CCOc7ccc8c(c7)C(=O)N(C7CCC(=O)NC7=O)C8=O)C6)C5)C4)nc3)cc21 (stereo partly shown) [Compound 386, 2-(2,6-dioxo-3-piperidyl)-5-[2-[2-[[3-[[5-(5-methylpyrido[4,3-b]indol-7-yl)-2-pyridyl]oxy]cyclobutyl]methyl]-2,6-diazaspiro[3.3]heptan-6-yl]ethoxy]isoindoline-1,3-dione diformate] | < 50% | –
6 | Cn1c2ccncc2c2ccc(-c3ccc(O[C@H]4C[C@H](CN5CCN(CCCCCOc6ccc7c(c6)C(=O)N(C6CCC(=O)NC6=O)C7=O)CC5)C4)nc3)cc21 (stereo partly shown) [Compound 387, 2-(2,6-dioxopiperidin-3-yl)-5-((5-(4-(((1r,3r)-3-((5-(5-methyl-5H-pyrido[4,3-b]indol-7-yl)pyridin-2-yl)oxy)cyclobutyl)methyl)piperazin-1-yl)pentyl)oxy) isoindoline-1,3-dione] | < 50% | –
7 | Cn1c2ccncc2c2ccc(-c3ccc(O[C@H]4C[C@H](OC5CCN(CCCN6CC(Oc7ccc8c(c7)C(=O)N(C7CCC(=O)NC7=O)C8=O)C6)CC5)C4)nc3)cc21 (stereo partly shown) [Compound 388, 2-(2,6-dioxopiperidin-3-yl)-5-((1-(3-(4-((1r,3r)-3-((5-(5-methyl-5H-pyrido[4,3-b]indol-7-yl)pyridin-2-yl)oxy)cyclobutoxy)piperidin-1-yl)propyl)azetidin-3-yl)oxy) isoindoline-1,3-dione] | < 50% | –
8 | Cc1ncsc1-c1ccc([C@H](C)NC(=O)[C@@H]2C[C@@H](O)CN2C(=O)[C@@H](NC(=O)CN2CCN(CCN3CCC(O[C@H]4C[C@H](Oc5ccc(-c6ccc7c8cnccc8n(C)c7c6)cn5)C4)CC3)CC2)C(C)(C)C)cc1 [Compound 389, (2S,4R)-1-((S)-3,3-dimethyl-2-(2-(4-(2-(4-((1r,3r)-3-((5-(5-methyl-5H-pyrido[4,3-b]indol-7-yl)pyridin-2-yl)oxy)cyclobutoxy)piperidin-1-yl)ethyl)piperazin-1-yl)acetamido)butanoyl)-4-hydroxy-N-((S)-1-(4-(4-methylthiazol-5-yl)phenyl)ethyl) pyrrolidine-2-carboxamide] | < 50% | –
9 | Cn1c2ccncc2c2ccc(-c3ccc(N4CCC(CN5CCN(c6ccc7c(c6)C(=O)N(C6CCC(=O)NC6=O)C7=O)CC5)CC4)nc3)cc21 (stereo not shown) [Compound 390, 2-(2,6-dioxopiperidin-3-yl)-5-(4-[[1-(5-[5-methyl-5H-pyrido[4,3-b]indol-7-yl]pyridin-2-yl)piperidin-4-yl]methyl]piperazin-1-yl)-2,3-dihydro-1H-isoindole-1,3-dione] | > 50% | –
10 | Cc1ncsc1-c1ccc([C@H](C)NC(=O)[C@@H]2C[C@@H](O)CN2C(=O)[C@@H](c2cc(N3CCN(CCO[C@H]4C[C@H](Oc5ccc(-c6ccc7c8cnccc8n(C)c7c6)cn5)C4)CC3)no2)C(C)C)cc1 [Compound 391, (2S,4R)-4-hydroxy-1-((R)-3-methyl-2-(3-(4-(2-((1r,3R)-3-((5-(5-methyl-5H-pyrido[4,3-b]indol-7-yl)pyridin-2-yl)oxy)cyclobutoxy)ethyl)piperazin-1-yl)isoxazol-5-yl)butanoyl)-N-((S)-1-(4-(4-methylthiazol-5-yl)phenyl)ethyl) pyrrolidine-2-carboxamide] | < 50% | –
11 | Cn1c2ccncc2c2ccc(-c3ccc(O[C@H]4C[C@H](N(C)C5CC6(C5)CN(CCOc5ccc7c(c5)C(=O)N(C5CCC(=O)NC5=O)C7=O)C6)C4)nc3)cc21 (stereo partly shown) [Compound 392, 2-(2,6-dioxopiperidin-3-yl)-5-(2-(6-(methyl((1r,3r)-3-((5-(5-methyl-5H-pyrido[4,3-b]indol-7-yl)pyridin-2-yl)oxy)cyclobutyl)amino)-2-azaspiro[3.3]heptan-2-yl)ethoxy) isindoline-1,3-dione] | > 50% | –
12 | Cn1c2ccncc2c2ccc(-c3ccc(O[C@H]4C[C@H](CN5CCC(CCCCCOc6ccc7c(c6)C(=O)N(C6CCC(=O)NC6=O)C7=O)CC5)C4)nc3)cc21 (stereo partly shown) [Compound 393, 2-(2,6-dioxopiperidin-3-yl)-5-((5-(1-(((1r,3r)-3-((5-(5-methyl-5H-pyrido[4,3-b]indol-7-yl)pyridin-2-yl)oxy)cyclobutyl)methyl)piperidin-4-yl)pentyl)oxy) isoindoline-1,3-dione] | < 50% | –
13 | Cn1c2ccncc2c2ccc(-c3ccc(O[C@H]4C[C@H](CN5CCC(CCCN6CC(Oc7ccc8c(c7)C(=O)N(C7CCC(=O)NC7=O)C8=O)C6)CC5)C4)nc3)cc21 (stereo partly shown) [Compound 394, 2-(2,6-dioxopiperidin-3-yl)-5-((1-(3-(1-(((1r,3r)-3-((5-(5-methyl-5H-pyrido[4,3-b]indol-7-yl)pyridin-2-yl)oxy)cyclobutyl)methyl)piperidin-4-yl)propyl)azetidin-3-yl)oxy)isoindoline-1,3-dione] | > 50% | –
14 | Cc1ncsc1-c1ccc([C@H](C)NC(=O)[C@@H]2C[C@@H](O)CN2C(=O)[C@@H](c2cc(OCCOCCOCCOc3ccc(-c4ccc5c(c4)[nH]c4ccncc45)cn3)no2)C(C)C)cc1 [Compound 396] | – | A (≤50% of tau protein remaining (>50% of tau protein degraded))
15 | Cn1c2ccncc2c2ccc(-c3ccc(N4CCC(CCN5CCN(c6ccc7c(c6)C(=O)N(C6CCC(=O)NC6=O)C7=O)CC5)CC4)nc3)cc21 (stereo not shown) [Compound 397, 2-(2,6-dioxopiperidin-3-yl)-5-(4-(2-(1-(5-(5-methyl-5H-pyrido[4,3-b]indol-7-yl)pyridin-2-yl)piperidin-4-yl)ethyl)piperazin-1-yl)isindoline-1,3-dione] | < 50% | –
16 | Cc1ncsc1-c1ccc([C@H](C)NC(=O)[C@@H]2C[C@@H](O)CN2C(=O)[C@@H](c2cc(OCCN3CCC(O[C@H]4C[C@H](Oc5ccc(-c6ccc7c8cnccc8n(C)c7c6)cn5)C4)CC3)no2)C(C)C)cc1 [Compound 398, (2S,4R)-4-hydroxy-1-((R)-3-methyl-2-(3-(2-(4-((1r,3R)-3-((5-(5-methyl-5H-pyrido[4,3-b]indol-7-yl)pyridin-2-yl)oxy)cyclobutoxy)piperidin-1-yl)ethoxy)isoxazol-5-yl)butanoyl)-N-((S)-1-(4-(4-methylthiazol-5-yl)phenyl)ethyl) pyrrolidine-2-carboxamide] | < 50% | –
